Source: US20220282217A1, “COMPOSITIONS AND METHODS FOR PREPARING T CELL COMPOSITIONS AND USES THEREOF” (priority 2019, published 2022)
Read-outs that look alike come from different tables or passages of the source. Where a SMILES comes first, the peptide text is derived from it.

Target: HLA-A02.01 (Homo sapiens, UniProt P04439, D140Y/D185E/D98H/E176V/E277Q/G131W/G231S/I119V/I121R/I166T/I218V/L300P/L318F/N151K/N90K/P208A/P217A/Q86G/Q94H/R138H/R169H/T345S)
Experiment: Class I MHC peptide binding affinity (displacement of radiolabeled reference peptide)
Protocol: In brief, MHCI complexes were prepared and bound to radiolabeled reference peptides. Peptides were incubated at varying concentrations with these complexes for 2 days, and the amount of remaining radiolabeled peptide bound to […] was measured using size exclusion gel-filtration.

[1] = allele A02.01, read-out: Observed Affinity (IC50, (nM))

SMILES | IC50 [1] | further results
CSCC[C@H](NC(=O)[C@H](C)NC(=O)[C@H](CO)NC(=O)[C@H](CCSC)NC(=O)[C@H](CC(C)C)NC(=O)[C@H](C)N)C(=O)N[C@H](C(=O)N[C@H](C(=O)N[C@@H](CO)C(=O)O)[C@@H](C)O)[C@@H](C)O (H-ALMSAMTTS-OH; N-terminus and C-terminus assumed) | 139 nM | 
CC[C@H](C)[C@H](NC(=O)[C@H](CCC(N)=O)NC(=O)[C@H](Cc1c[nH]c2ccccc12)NC(=O)[C@H](Cc1ccccc1)NC(=O)CNC(=O)[C@H](CS)NC(=O)[C@H](CC(C)C)NC(=O)[C@H](C)NC(=O)[C@@H](N)Cc1ccccc1)C(=O)O (H-FALCGFWQI-OH; N-terminus and C-terminus assumed) | 0.4 nM | 
CC[C@H](C)[C@H](NC(=O)[C@@H]1CCCN1C(=O)[C@H](CCCNC(=N)N)NC(=O)[C@H](CCCNC(=N)N)NC(=O)[C@H](CC(N)=O)NC(=O)[C@H](CCSC)NC(=O)[C@H](CO)NC(=O)CNC(=O)[C@H](CCSC)NC(=O)[C@@H](N)CS)C(=O)O (H-CMGSMNRRPI-OH; N-terminus and C-terminus assumed) | 1990 nM | 
CC[C@H](C)[C@H](NC(=O)[C@H](CCC(N)=O)NC(=O)[C@@H](N)[C@@H](C)O)C(=O)N[C@@H](CO)C(=O)N[C@@H](CO)C(=O)N[C@@H](C)C(=O)N[C@H](C(=O)N[C@@H](CCC(=O)O)C(=O)N[C@@H](Cc1ccc(O)cc1)C(=O)N[C@@H](CC(C)C)C(=O)O)[C@@H](C)O (H-TQISSATEYL-OH; N-terminus and C-terminus assumed) |  | IC50 (Observed Affinity (IC50, (nM)), allele A02.01): 2640 nM
CC[C@H](C)[C@H](N)C(=O)N[C@H](C(=O)N[C@@H](CCC(=O)O)C(=O)N[C@@H](Cc1ccc(O)cc1)C(=O)N[C@@H](CS)C(=O)N[C@@H](Cc1ccccc1)C(=O)N[C@@H](Cc1ccc(O)cc1)C(=O)NCC(=O)N[C@@H](CC(=O)O)C(=O)N[C@@H](CC(C)C)C(=O)O)[C@@H](C)CC (H-IIEYCFYGDL-OH; N-terminus and C-terminus assumed) | 1090 nM | 
CC[C@H](C)[C@H](NC(=O)[C@@H]1CCCN1C(=O)[C@H](CCCNC(=N)N)NC(=O)[C@H](Cc1c[nH]c2ccccc12)NC(=O)[C@H](CC(N)=O)NC(=O)[C@H](CCSC)NC(=O)CN)C(=O)N[C@@H](CC(C)C)C(=O)N[C@H](C(=O)O)[C@@H](C)O (H-GMNWRPILT-OH; N-terminus and C-terminus assumed) | 1130 nM | 
CC[C@H](C)[C@H](NC(=O)[C@@H](N)CC(C)C)C(=O)N[C@@H](CCSC)C(=O)N[C@@H](CCC(N)=O)C(=O)N[C@@H](CC(C)C)C(=O)N[C@@H](CCSC)C(=O)N1CCC[C@H]1C(=O)N[C@@H](Cc1ccccc1)C(=O)NCC(=O)O (H-LIMQLMPFG-OH; N-terminus and C-terminus assumed) | 3510 nM | Kd (EGFR T790M peptides, HLA allele A02.01, read-out: Affinity): 3.34 µM
CC[C@H](C)[C@H](N)C(=O)N[C@@H](CCC(N)=O)C(=O)N[C@@H](CC(C)C)C(=O)N[C@@H](CCC(N)=O)C(=O)N[C@@H](CC(=O)O)C(=O)N[C@@H](CCCCN)C(=O)N[C@@H](Cc1ccccc1)C(=O)N[C@@H](CCC(=O)O)C(=O)N[C@@H](Cc1c[nH]cn1)C(=O)N[C@@H](CC(C)C)C(=O)O | 4270 nM | 
CC(C)C[C@H](NC(=O)[C@@H](N)CC(C)C)C(=O)NCC(=O)N[C@@H](CCCNC(=N)N)C(=O)N[C@@H](CC(N)=O)C(=O)N[C@@H](CO)C(=O)N[C@@H](Cc1ccccc1)C(=O)N[C@@H](CCC(=O)O)C(=O)N[C@H](C(=O)N[C@@H](CS)C(=O)O)C(C)C (H-LLGRNSFEVC-OH; N-terminus and C-terminus assumed) | 2080 nM | 
CC[C@H](C)[C@H](NC(=O)[C@@H](N)CCCCN)C(=O)N[C@H](C(=O)N[C@@H](CCC(=O)O)C(=O)N[C@@H](CCC(N)=O)C(=O)N[C@@H](CCC(=O)O)C(=O)N[C@@H](CCCCN)C(=O)N[C@@H](CC(=O)O)C(=O)N[C@@H](Cc1ccccc1)C(=O)N[C@@H](CC(C)C)C(=O)O)[C@@H](C)O (H-KITEQEKDFL-OH; N-terminus and C-terminus assumed) | 1400 nM | 
CC(C)C[C@H](NC(=O)[C@H](CC(C)C)NC(=O)[C@H](CC(=O)O)NC(=O)[C@H](CC(N)=O)NC(=O)[C@H](CC(C)C)NC(=O)[C@@H]1CCCN1C(=O)[C@@H](NC(=O)[C@@H](NC(=O)[C@@H](N)CC(N)=O)C(C)C)C(C)C)C(=O)O (H-NVVPLNDLL-OH; N-terminus and C-terminus assumed) | 2900 nM | 
CC(C)C[C@H](NC(=O)[C@H](C)N)C(=O)N[C@@H](CC(N)=O)C(=O)N[C@@H](CO)C(=O)N[C@@H](CCC(=O)O)C(=O)N[C@@H](C)C(=O)N[C@@H](CC(C)C)C(=O)N[C@@H](CO)C(=O)N[C@H](C(=O)O)C(C)C (H-ALNSEALSV-OH) | 14 nM | 
CC(C)C[C@H](NC(=O)[C@H](C)N)C(=O)N[C@@H](CC(N)=O)C(=O)N[C@@H](CO)C(=O)N[C@@H](CCC(=O)O)C(=O)N[C@@H](C)C(=O)N[C@@H](CC(C)C)C(=O)N[C@@H](CO)C(=O)N[C@H](C(=O)N[C@H](C(=O)O)C(C)C)C(C)C | 15 nM | 
CC(C)C[C@H](NC(=O)[C@H](Cc1ccccc1)NC(=O)[C@H](Cc1ccccc1)NC(=O)[C@H](CCCCN)NC(=O)[C@@H]1CCCN1C(=O)[C@H](Cc1c[nH]c2ccccc12)NC(=O)[C@H](CCCCN)NC(=O)[C@@H](NC(=O)[C@H](CC(C)C)NC(=O)[C@@H](N)Cc1ccc(O)cc1)[C@@H](C)O)C(=O)O (H-YLTKWPKFFL-OH; N-terminus and C-terminus assumed) | 42.9 nM | 
CSCC[C@H](N)C(=O)N[C@@H](C)C(=O)N[C@@H](CC(N)=O)C(=O)NCC(=O)N[C@@H](CO)C(=O)N[C@@H](CC(C)C)C(=O)N[C@@H](CC(C)C)C(=O)N[C@@H](CC(N)=O)C(=O)N[C@@H](Cc1ccc(O)cc1)C(=O)N[C@@H](CC(C)C)C(=O)O | 1080 nM | IC50 (BTK C481S peptide, HLA Allele A02.01, read-out: Affinity): 1010 nM
CC(C)C[C@H](NC(=O)[C@H](C)NC(=O)[C@H](Cc1ccccc1)NC(=O)[C@H](CO)NC(=O)[C@@H](NC(=O)[C@H](CCC(N)=O)NC(=O)[C@@H](NC(=O)[C@@H](NC(=O)[C@H](CCC(N)=O)NC(=O)[C@@H](N)CC(C)C)C(C)C)[C@@H](C)O)[C@@H](C)O)C(=O)O [LQVTQTSFAL] (H-LQVTQTSFAL-OH; N-terminus and C-terminus assumed) | 718 nM | 
CC(C)C[C@H](NC(=O)[C@H](CC(C)C)NC(=O)[C@H](CC(=O)O)NC(=O)[C@H](CS)NC(=O)[C@H](CC(C)C)NC(=O)[C@@H]1CCCN1C(=O)[C@@H](NC(=O)[C@@H](NC(=O)[C@@H](N)CC(N)=O)C(C)C)C(C)C)C(=O)O (H-NVVPLCDLL-OH; N-terminus and C-terminus assumed) | 3030 nM | 
CC(C)C[C@H](NC(=O)[C@H](Cc1ccccc1)NC(=O)[C@H](CO)NC(=O)[C@H](CC(C)C)NC(=O)[C@H](CS)NC(=O)[C@H](CO)NC(=O)[C@H](Cc1ccccc1)NC(=O)[C@H](CC(C)C)NC(=O)[C@H](CCCCN)NC(=O)[C@@H](N)Cc1ccccc1)C(=O)O (H-FKLFSCLSFL-OH; N-terminus and C-terminus assumed) | 663 nM | 
CSCC[C@H](NC(=O)[C@H](CCCNC(=N)N)NC(=O)[C@H](CCCNC(=N)N)NC(=O)[C@H](Cc1ccc(O)cc1)NC(=O)[C@H](CC(=O)O)NC(=O)[C@H](Cc1c[nH]c2ccccc12)NC(=O)[C@H](CO)NC(=O)[C@H](CO)NC(=O)[C@H](CC(C)C)NC(=O)[C@@H](N)Cc1ccccc1)C(=O)O (H-FLSSWDYRRM-OH; N-terminus and C-terminus assumed) | 324 nM | 
